Laboratory results as given in patent US20070249548A1, “Nucleoside Analog or Salts of the Same” (GIFU UNIVERSITY, priority 2004, published 2007).
[TBDPS-acyc] = code of the source, not defined here; d = 2'-deoxy (DNA)

Tested on: oligonucleotide made from sequence number 2
Assay: Stability of the double strand (Tm value)
Format: physicochemical
Settings: double strand with oligonucleotide of sequence number 2; annealing buffer 10 mM sodium phosphate (pH 7.0), 1 M NaCl

Row | Substance | Tm value [°C]
1 | Comparative Example 2: Double-stranded oligonucleotide composed of the oligonucleotides made from sequence number 3 and sequence number 2 (chain 1 AAGGAAAAGAGGAAAGA; chain 2 TCTTTCCTCTTTTCCTT; DNA, backbone not given here) | 57.7
2 | Example 10: Double-stranded oligonucleotide analog composed of the oligonucleotide analog of sequence number 1 and the oligonucleotide of sequence number 2 (chain 1 AAGGAAAAGAGGAAAGA; chain 2 TCTTTCCTCTTTTCCTT; chain 1: sugars from the 5' end d7 [TBDPS-acyc]1 d9, backbone not given here; chain 2: DNA, backbone not given here) | 49.1
